Structures are written as SMILES.

The first test has as its system IL-12 induced STAT4 phosphorlyation mediated by TYK2/JAK2. The test is described as follows: IL-12 Induced pSTAT4 in Human PBMC. In kind it is cell-based. Conditions: 1.7 ng/mL IL-12 for 30 minutes. As to the method: Human PBMC were isolated from buffy coat and are stored frozen for assays as needed. […] 15 μL of compound or DMSO was added to the well at the desired concentrations and incubated at 1 hr at 37° C. 15 μL of stimulus (final concentration of 1.7 ng/mL IL-12) was added for 30 minutes prior to pSTAT4 and total STAT4 analysis using cell lysates prepared and analyzed by MSD reagents as per manufacturer protocol. The final DMSO concentration of compound in the assay was 0.1%.
The IL-12 induced pSTAT4 assay evaluates the inhibition of IL-12 induced STAT4 phosphorlyation mediated by TYK2/JAK2 (heterpdimeric complex).
Regarding `CNc1cc(Nc2cccn(C(C)C)c2=O)nc2c(C(=O)NC3CC[C@@H]3F)cnn12` (mixture of isomers) [Compound I-145], the 50% inhibitory concentration (IC50) – broadly, the concentration needed to halve the response being measured – is less than 0.1 µM.
Still for that read-out and setting: with `CNc1cc(Nc2cccn([C@H]3C[C@@H](OC)C3)c2=O)nc2c(C(=O)NC3CC[C@@H]3F)cnn12` (mixture of isomers) [Compound I-173] the figure was less than 0.1 µM.
In turn, `CNc1cc(Nc2cccn([C@H]3C[C@H](OC)C3)c2=O)nc2c(C(=O)NC3CC[C@@H]3F)cnn12` (mixture of isomers) [Compound I-176] returned a half-maximal inhibitory concentration (IC50) of less than 0.1 µM.
The same measure, in the same setting: with `CNc1cc(Nc2cccn([C@H]3C[C@H](F)C3)c2=O)nc2c(C(=O)N[C@H]3CC[C@H]3O)cnn12` [Compound I-16, 5-((1-((1r,3S)-3-Fluorocyclobutyl)-2-oxo-1,2-dihydropyridin-3-yl)amino)-N-((1S,2R)-2-hydroxycyclobutyl)-7-(methylamino)pyrazolo[1,5-a]pyrimidine-3-carboxamide] the figure was less than 0.1 µM; with `CNc1cc(Nc2cccn([C@H]3[C@@H]4COC[C@@H]43)c2=O)nc2c(C(=O)N[C@@H]3C[C@H]3OC)cnn12` [Compound I-25, 5-((1-((1R,5S,6r)-3-Oxabicyclo[3.1.0]hexan-6-yl)-2-oxo-1,2-dihydropyridin-3-yl)amino)-N-((1R,2R)-2-methoxycyclopropyl)-7-(methylamino)pyrazolo[1,5-a]pyrimidine-3-carboxamide], less than 0.1 µM; with `CNc1cc(Nc2cccn([C@H]3C[C@H](F)C3)c2=O)nc2c(C(=O)N[C@@H]3CC[C@H]3OC)cnn12` [Compound I-57, 5-((1-((1r,3R)-3-Fluorocyclobutyl)-2-oxo-1,2-dihydropyridin-3-yl)amino)-N-((1R,2R)-2-methoxycyclobutyl)-7-(methylamino)pyrazolo[1,5-a]pyrimidine-3-carboxamide], less than 0.1 µM.
Compound `CNc1cc(Nc2cccn([C@H]3C[C@H](F)C3)c2=O)nc2c(C(=O)N[C@@H]3CC[C@H]3O)cnn12` [Compound I-108, 5-((1-((1r,3R)-3-Fluorocyclobutyl)-2-oxo-1,2-dihydropyridin-3-yl)amino)-N-((1R,2R)-2-hydroxycyclobutyl)-7-(methylamino)pyrazolo[1,5-a]pyrimidine-3-carboxamide] gave an IC50 of 0.1 to 0.5 µM.
The same measure, in the same setting: with `CNc1cc(Nc2cccn([C@@H]3CCC[C@](C)(OC)C3)c2=O)nc2c(C(=O)NC3CC3)cnn12` [Compound I-124] the figure was less than 0.1 µM.
The same measure, in the same setting: with `CNc1cc(Nc2cccn(C3COC3)c2=O)nc2c(C(=O)N[C@@H]3C[C@@H]3F)cnn12` [Compound I-125] the figure was less than 0.1 µM; with `CNc1cc(Nc2cccn([C@H]3CCC[C@@](C)(O)C3)c2=O)nc2c(C(=O)N[C@@H]3C[C@@H]3F)cnn12` [Compound I-129], less than 0.1 µM; with `CNc1cc(Nc2cccn(C3CCC[C@@](C)(OC)C3)c2=O)nc2c(C(=O)N[C@@H]3C[C@@H]3F)cnn12` (stereo partly drawn) [Compound I-130], less than 0.1 µM.
On the same count and under the same terms, with `CNc1cc(Nc2cccn([C@@H]3CCC[C@](C)(OC)C3)c2=O)nc2c(C(=O)N[C@@H]3C[C@@H]3F)cnn12` [Compound I-131] the figure was less than 0.1 µM; with `CNc1cc(Nc2cccn([C@H]3C[C@@H]3F)c2=O)nc2c(C(=O)N[C@@H]3C[C@H]3OC)cnn12` [Compound I-133], less than 0.1 µM; with `CNc1cc(Nc2cccn([C@@H]3C[C@H]3F)c2=O)nc2c(C(=O)N[C@@H]3C[C@H]3OC)cnn12` [Compound I-135], less than 0.1 µM.
Regarding `CNc1cc(Nc2cccn(C3CC(F)(F)C3)c2=O)nc2c(C(=O)N[C@@H]3C[C@H]3OC)cnn12` [Compound I-139], the IC50 was less than 0.1 µM.
The same measure, in the same setting: with `CNc1cc(Nc2cccn(C(C)C)c2=O)nc2c(C(=O)N[C@@H]3CC[C@H]3F)cnn12` [Compound I-147] the figure was less than 0.1 µM; with `CNc1cc(Nc2cccn([C@H]3C[C@@H]3F)c2=O)nc2c(C(=O)N[C@H]3CC[C@@H]3F)cnn12` [Compound I-149], less than 0.1 µM; with `CNc1cc(Nc2cccn([C@@H]3C[C@H]3F)c2=O)nc2c(C(=O)NC3CC[C@@H]3F)cnn12` (stereo partly drawn) [Compound I-151], less than 0.1 µM.
Compound `CNc1cc(Nc2cccn([C@@H]3C[C@H]3OC)c2=O)nc2c(C(=O)N[C@H]3CC[C@@H]3F)cnn12` [Compound I-155] displayed a half-maximal inhibitory concentration (IC50) of less than 0.1 µM.
On the same count and under the same terms, with `CNc1cc(Nc2cccn([C@H]3C[C@@H]3OC)c2=O)nc2c(C(=O)N[C@H]3CC[C@@H]3F)cnn12` [Compound I-158] the figure was less than 0.1 µM.

The same test, now with this note: 0.5 h, 1.7 ng/mL IL-12 for 30 minutes.
In the case of `CO[C@@H]1CCC1NC(=O)c1cnn2c3c(c(Nc4cccn(C(C)C)c4=O)nc12)OCCN3` (stereo in doubt) [Compound I-759, 5-((1-Isopropyl-2-oxo-1,2-dihydropyridin-3-yl)amino)-N-(2-methoxycyclobutyl)-2,3-dihydro-1H-pyrazolo[5′,1′:2,3]pyrimido[5,4-b][1,4]oxazine-7-carboxamide], the IC50 was less than 0.1 µM.
Same read-out and setting: with `CNc1cc(-c2cn(CC(=O)N(C)C)c3ncccc23)nc2c(C(=O)NC3CC[C@@H]3OC)cnn12` (stereo in doubt) [Compound I-920, 5-(1-(2-(dimethylamino)-2-oxoethyl)-1H-pyrrolo[2,3-b]pyridin-3-yl)-N-(2-methoxycyclobutyl)-7-(methylamino)pyrazolo[1,5-a]pyrimidine-3-carboxamide] the figure was 0.1 to 0.5 µM; with `CNc1cc(-c2cn(CC(=O)N3CCC3)c3ncccc23)nc2c(C(=O)NC3CC[C@@H]3OC)cnn12` (stereo in doubt) [Compound I-928, 5-(1-(2-(azetidin-1-yl)-2-oxoethyl)-1H-pyrrolo[2,3-b]pyridin-3-yl)-N-(2-methoxycyclobutyl)-7-(methylamino)pyrazolo[1,5-a]pyrimidine-3-carboxamide], 0.1 to 0.5 µM; with `CNc1cc(-c2cnc3n(CC(C)(C)O)cccc2-3)nc2c(C(=O)NC3CC[C@@H]3OC)cnn12` (stereo in doubt) [Compound I-979, 5-(7-(2-hydroxy-2-methylpropyl)-7H-pyrrolo[2,3-b]pyridin-3-yl)-N-(2-methoxycyclobutyl)-7-(methylamino)pyrazolo[1,5-a]pyrimidine-3-carboxamide], 0.1 to 0.5 µM.
Same read-out and setting: with `CNc1cc(-c2cnc3n(CCCN4CCOCC4)cccc2-3)nc2c(C(=O)NC3CC[C@@H]3OC)cnn12` (stereo in doubt) [Compound I-981, N-(2-methoxycyclobutyl)-7-(methylamino)-5-(7-(3-morpholinopropyl)-7H-pyrrolo[2,3-b]pyridin-3-yl)pyrazolo[1,5-a]pyrimidine-3-carboxamide] the figure was 0.1 to 0.5 µM; with `CNc1cc(Nc2cccn([C@H]3C[C@H](F)C3)c2=O)nc2c(C(=O)NC3CC[C@H]3O)cnn12` (stereo partly drawn) [Compound I-11, 5-((1-((1r,3S)-3-Fluorocyclobutyl)-2-oxo-1,2-dihydropyridin-3-yl)amino)-N-(2-hydroxycyclobutyl)-7-(methylamino)pyrazolo[1,5-a]pyrimidine-3-carboxamide], 0.1 to 0.5 µM.
On to `CNc1cc(Nc2cccn([C@H]3C[C@@H]3F)c2=O)nc2c(C(=O)N[C@H]3CC[C@H]3O)cnn12` [Compound I-12, 5-((1-((1S,2S)-2-Fluorocyclopropyl)-2-oxo-1,2-dihydropyridin-3-yl)amino)-N-((1S,2R)-2-hydroxycyclobutyl)-7-(methylamino)pyrazolo[1,5-a]pyrimidine-3-carboxamide], for which the half-inhibitory concentration (IC50) was less than 0.1 µM.
The same measure, in the same setting: with `CNc1cc(Nc2cccn([C@@H]3CC[C@H]3OC)c2=O)nc2c(C(=O)N[C@H]3CC[C@@H]3O)cnn12` [Compound I-20, N-((1S,2S)-2-Hydroxycyclobutyl)-5-((1-((1R,2R)-2-methoxycyclobutyl)-2-oxo-1,2-dihydropyridin-3-yl)amino)-7-(methylamino)pyrazolo[1,5-a]pyrimidine-3-carboxamide] the figure was less than 0.1 µM.
Same read-out and setting: with `CNc1cc(Nc2cccn(-c3ccc(C)nc3)c2=O)nc2c(C(=O)N[C@@H]3C[C@H]3OC)cnn12` [Compound I-34, N-((1R,2R)-2-Methoxycyclopropyl)-5-((6′-methyl-2-oxo-2H-[1,3′-bipyridin]-3-yl)amino)-7-(methylamino)pyrazolo[1,5-a]pyrimidine-3-carboxamide] the figure was less than 0.1 µM; with `[2H]C([2H])([2H])O[C@H]1CCC1NC(=O)c1cnn2c(NC)cc(Nc3cccn([C@H]4[C@@H]5COC[C@@H]54)c3=O)nc12` (stereo partly drawn) [Compound I-102, 5-((1-((1R,5S,6r)-3-Oxabicyclo[3.1.0]hexan-6-yl)-2-oxo-1,2-dihydropyridin-3-yl)amino)-N-((trans-1,2)-2-(methoxy-d3)cyclobutyl)-7-(methylamino)pyrazolo[1,5-a]pyrimidine-3-carboxamide], less than 0.1 µM; with `CNc1cc(Nc2cccn([C@H]3CCC[C@@H](C#N)C3)c2=O)nc2c(C(=O)NC3CC[C@@H]3OC)cnn12` (stereo partly drawn) [Compound I-114, 5-((1-((1S,3R)-3-Cyanocyclohexyl)-2-oxo-1,2-dihydropyridin-3-yl)amino)-N-((trans-1,2)-2-methoxycyclobutyl)-7-(methylamino)pyrazolo[1,5-a]pyrimidine-3-carboxamide], less than 0.1 µM.
The same measure, in the same setting: with `CNc1cc(Nc2cccn([C@@H]3CCC[C@H](C#N)C3)c2=O)nc2c(C(=O)NC3CC[C@@H]3OC)cnn12` (stereo partly drawn) [Compound I-115, 5-((1-((1R,3S)-3-Cyanocyclohexyl)-2-oxo-1,2-dihydropyridin-3-yl)amino)-N-((trans-1,2)-2-methoxycyclobutyl)-7-(methylamino)pyrazolo[1,5-a]pyrimidine-3-carboxamide] the figure was less than 0.1 µM; with `CNc1cc(Nc2cccn([C@H]3C[C@@H]3F)c2=O)nc2c(C(=O)NC3CC[C@@H]3F)cnn12` (stereo partly drawn) [Compound I-148, N-((trans-1,2)-2-Fluorocyclobutyl)-5-((1-((1S,2S)-2-fluorocyclopropyl)-2-oxo-1,2-dihydropyridin-3-yl)amino)-7-(methylamino)pyrazolo[1,5-a]pyrimidine-3-carboxamide], less than 0.1 µM.

These data come from patent publication US11414431B2, “Substituted pyrazolo[1,5-a]pyrimidines as TYK2 inhibitors” (Nimbus Lakshmi, Inc., priority 2018, dated 2022).
